{"source": "patent US11958856B2", "about": "“Substituted 1,2,3,8,9,9a-hexahydro-5H-pyrrolo[1,2-a]azepin-5-ones as factor XIa inhibitors” (Janssen Pharmaceutica NV, priority 2021, dated 2024)", "format_in_all_cases": "biochemical", "key": {"[1]": {"biological_target": "T1, Factor XIa (Homo sapiens, UniProt P03951)", "T1 sequence (P03951 388-625 limits assumed)": "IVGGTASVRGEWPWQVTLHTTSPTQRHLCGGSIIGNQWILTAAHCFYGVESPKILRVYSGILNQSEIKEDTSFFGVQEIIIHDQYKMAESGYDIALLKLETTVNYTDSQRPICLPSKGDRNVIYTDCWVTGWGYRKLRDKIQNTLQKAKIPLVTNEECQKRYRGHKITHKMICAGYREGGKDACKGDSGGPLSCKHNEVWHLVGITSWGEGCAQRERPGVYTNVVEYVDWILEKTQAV", "T1 sequence (P03951 19-387 partner limits assumed)": "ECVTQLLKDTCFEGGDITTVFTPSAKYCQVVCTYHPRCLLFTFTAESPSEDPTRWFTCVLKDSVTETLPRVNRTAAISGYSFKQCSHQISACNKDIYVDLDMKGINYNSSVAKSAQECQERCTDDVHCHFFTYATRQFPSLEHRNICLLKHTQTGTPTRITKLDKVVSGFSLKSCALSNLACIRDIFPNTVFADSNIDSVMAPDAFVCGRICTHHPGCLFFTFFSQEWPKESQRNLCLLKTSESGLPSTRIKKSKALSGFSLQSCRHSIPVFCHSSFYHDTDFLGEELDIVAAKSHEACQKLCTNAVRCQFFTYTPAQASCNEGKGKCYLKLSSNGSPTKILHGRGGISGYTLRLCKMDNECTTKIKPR", "test": "Kinetic parameters of the peptide substrate with Factor XIa (substrate inhibition model)", "conditions": "substrate of FXIa", "source_text": "(§1) A fluorescence intensity (FLINT) based assay was used to monitor inhibition of Factor XIa. The peptide substrate, 5Fam-KLTRAETV-K5Tamra (purchased from New England Peptide) was chosen based on the FXI sequence. Conversion of zymogen FXI to its activated form, FXIa, occurs by proteolytic cleavage by […] at two sites, Arg146 and Arg180. The custom peptide used in this assay was based on the Arg146 cleavage site of FXI. The peptide substrate was designed with a fluorophore-quencher pair, where the fluorescence is quenched until FXIa cleaves the 8-mer peptide after the Arg residue."}, "[2]": {"biological_target": "T2, human plasma kallikrein (Homo sapiens, UniProt P03952)", "T2 sequence (P03952 391-638 limits assumed)": "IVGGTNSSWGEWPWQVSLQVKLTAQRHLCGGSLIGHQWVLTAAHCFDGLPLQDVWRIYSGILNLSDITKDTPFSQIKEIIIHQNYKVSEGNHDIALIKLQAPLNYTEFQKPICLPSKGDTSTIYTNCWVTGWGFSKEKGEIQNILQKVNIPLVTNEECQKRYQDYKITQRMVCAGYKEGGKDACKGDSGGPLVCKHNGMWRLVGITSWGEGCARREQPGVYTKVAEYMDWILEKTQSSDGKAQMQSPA", "T2 sequence (P03952 20-390 partner limits assumed)": "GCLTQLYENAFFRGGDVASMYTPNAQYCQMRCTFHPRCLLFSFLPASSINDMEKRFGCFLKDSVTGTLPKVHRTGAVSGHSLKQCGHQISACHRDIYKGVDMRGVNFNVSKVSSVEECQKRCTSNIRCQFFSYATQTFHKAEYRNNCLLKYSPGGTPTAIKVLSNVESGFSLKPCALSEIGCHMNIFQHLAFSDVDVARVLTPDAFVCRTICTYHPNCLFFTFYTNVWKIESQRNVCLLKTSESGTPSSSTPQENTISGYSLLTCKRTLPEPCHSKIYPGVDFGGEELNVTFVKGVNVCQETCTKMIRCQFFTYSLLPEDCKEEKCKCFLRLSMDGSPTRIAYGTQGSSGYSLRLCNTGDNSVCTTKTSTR", "test": "Kinetic parameters of the peptide substrate with kallikrein (Michaelis-Menten fit)", "source_text": "(§2) A fluorescence intensity (FLINT) based assay was used to monitor inhibition of human plasma kallikrein. The peptide substrate, Z-Gly-Pro-Arg-AMC (Purchased from Bachem; Catalog #I-1150) was chosen based on its relatively low KM for kallikrein which enables running the assay at lower substrate concentrations to control background fluorescence."}, "[3]": {"biological_target": "T1, Factor XIa", "test": "Factor XIa inhibition assay (FLINT) with fluorophore-quencher pair peptide substrate", "source_text": "Biological Example 1: Factor XIa Inhibition Assay Utilizing a Fluorophore-Quencher Pair Peptide Substrate\nas §1\nThe Factor XIa FLINT assay was used with the following 5Fam-KLTRAETV-K5Tamra assay buffer: 50 mM Tris, pH 7.5, 100 mM NaCl, 5 mM CaCl2, 0.1 mg/mL BSA, 0.03% CHAPS. […]\nTest compound(s) were run in an 11-point, 3-fold serial dilution with a final top compound concentration of 100 nM. […] The assay was run with kinetic (KIN) reads at 5 min intervals over 30 minutes. […]\n(§3) Percent inhibition (IC50) curves were generated per compound tested, and data was analyzed using a 4-parameter logistic fit using GeneData Screener. The relative fluorescence unit (RFU) values were normalized to percent inhibition using the following equation: % inhibition=((HC−LC)−(compound−LC)/(HC−LC))*100 […]"}, "[4]": {"biological_target": "T2, human plasma kallikrein", "test": "Kallikrein inhibition assay (FLINT) with quenched AMC peptide substrate", "conditions": "30 min preincubation; 50 μM Z-Gly-Pro-Arg-AMC substrate; 2 nM kallikrein; top compound concentration 1 μM", "source_text": "Biological Example 2: Kallikrein Inhibition Assay Utilizing a Quenched AMC Peptide Substrate\nas §2\nThe Kallikrein FLINT assay was used with the following Z-Gly-Pro-Arg-AMC assay buffer: 50 mM Tris, pH 7.5, 100 mM NaCl, 5 mM CaCl2, 0.1 mg/mL BSA, 0.03% CHAPS. Assay buffer was prepared by mixing all ingredients fresh. 2× Z-Gly-Pro-Arg-AMC peptide substrate was prepared by diluting 10 mM stock into 1× assay buffer for a 100 μM working concentration (50 μM final concentration). […]\nTest compound(s) were run in an 11-point, 3-fold serial dilution with a final top compound concentration of 1 μM. […] The assay was run with kinetic (KIN) reads at 5 min intervals over 30 minutes. […]\nas §3"}}, "note": "Peptide text beside a SMILES is read from it. * marks the point of attachment. 5FAM = O=C1OC2(c3ccc(O)cc3Oc3cc(O)ccc32)c2ccc(C(=O)*)cc21; AMC = Cc1cc(=O)oc2cc(N*)ccc12; Cbz = O=C(OCc1ccccc1)*", "data": [{"compound": "5Fam-KLTRAETV-K5Tamra (5FAM-KLTRAETV-{K(5-TAMRA)}) [fluorophore-quencher pair peptide substrate based on the Arg146 cleavage site of FXI, purchased from New England Peptide]", "values": [{"measurement": "Ki", "setting": "[1]", "value": 61600, "unit": "nM"}, {"measurement": "Km", "setting": "[1]", "value": 12.4, "unit": "µM"}, {"measurement": "kcat", "setting": "[1]", "value": 0.86, "unit": "s⁻¹"}]}, {"compound": "Cc1cc(=O)oc2cc(NC(=O)[C@H](CCCNC(=N)N)NC(=O)[C@@H]3CCCN3C(=O)CNC(=O)OCc3ccccc3)ccc12", "note": "[Z-Gly-Pro-Arg-AMC] (Cbz-Gly-Pro-Arg-{AMC})", "values": [{"measurement": "kcat", "setting": "[2]", "value": 0.76, "unit": "s⁻¹"}]}, {"compound": "NC(=O)c1ccc(NC(=O)[C@@H]2CC[C@H]3CCC(c4c(-n5cnnn5)ccc(Cl)c4F)=CC(=O)N32)cc1F", "note": "[ID No. 20, (3S,9aR)-N-(4-carbamoyl-3-fluorophenyl)-7-(3-chloro-2-fluoro-6-(1H-tetrazol-1-yl)phenyl)-5-oxo-2,3,5,8,9,9a-hexahydro-1H-pyrrolo[1,2-a]azepine-3-carboxamide]", "values": [{"measurement": "IC50", "setting": "[3]; 30 min preincubation, 15 μM 5Fam-KLTRAETV-K5Tamra substrate, top compound concentration 100 nM, kinetic read", "value": "> 100", "unit": "nM"}, {"measurement": "Ki", "setting": "[3]; same assay as Factor XIa IC50", "value": "> 50", "unit": "nM"}, {"measurement": "IC50", "setting": "[4]", "value": 802, "unit": "nM"}]}]}
